{
  "source": "patent US20250388571A1",
  "about": "“AMP-ACTIVATED PROTEIN KINASE MODULATOR COMPOUNDS AND USES THEREOF” (Biolexis Therapeutics, Inc., priority 2024, published 2025)",
  "key": {"[1]": {"tested_on": "human hepatocytes-THLE-2 cells", "assay": "Glucose uptake assay, THLE-2 cells", "type": "cell-based", "protocol": "FIGS. 13-16 show results for glucose update assays in THLE-2 cells (ATCC, cat. No. CRL-2706) when treated with compound I-11 (FIG. 13), compound I-7 (FIG. 14), MK-8722 (FIG. 15), and PF-06409577 (FIG. 16). The THLE-2 cells were starved for 3 hours in high glucose DMEM without FBS, treated with the components noted above in DMEM without FBS/glucose for 1 hour, and glucose uptake was detected using a glucose uptake kit (Promega). The bars show (from left to right) concentrations of 100 μM, 33 μM, 11 μM, 3.7 μM, 1.23 μM, 0.41 μM, 0.14 μM, 0.045 μM, 0.015 μM, 0.005 μM, 0 μM, and insulin.\n(§1) Human skeletal myoblasts were obtained (Thermofisher; BYU) and cultured in DMEM/F12 medium with 10% FBS. For differentiation, 2% horse serum low glucose DMEM medium was employed for 72 hours. Human cardiomyocytes cells (HCM cells; Promocell) were cultured in myocyte growth medium (Promocell). Human preadipocyte HWP-c cells (Promocell) were obtained from upper arm of diabetic II donor. Human preadipocyte HWP-c cells (Promocell) were obtained from abdomen of diabetic II donor. For differentiating human preadipocytes, cells were cultured in preadipocyte growth medium to total confluency stage. The growth medium was replaced with preadipocyte differentiation medium for 72 hours, then changed to PromoCell adipocyte nutrition medium to complete the differentiation process. THLE-2 cells were cultured in BEGM from Lonza/Clonetics Corporation, Walkersville, MD 21793 (BEGM Bullet Kit; CC3170). HepG2, L6 and C2Cl2 cells were cultured in EMEM medium.\n(§2) After differentiation myoblasts, preadipocyte cells were starved by removing the medium and adding 100 μL DMEM without serum. The medium was then replaced with 100 μL DMEM±1 μM insulin at indicated concentration of representative compounds without serum or glucose. The cells were then incubated for 1 hour at 37° C. in 5% CO2. The cells were then removed from the medium and 50 μL of 0.1 mM 2DG in PBS was added. Cells were incubated for 30 minutes at 25° C. 25 μL of Stop Buffer was added and samples were mixed. 25 μL of Neutralization Buffer was then added and mixed. 100 μL of 2DG6P Detection Reagent was then added and mixed. Samples were then incubated for 1 hour at 25° C. Luminescence was then recorded with 0.3-1 second integration on a luminometer."}, "[2]": {"tested_on": "Human white preadipocyte (HWP) cells", "assay": "Glucose uptake assay, human white preadipocyte cells", "type": "cell-based", "protocol": "(§3) FIGS. 5-8 show results for glucose update assays in Human white preadipocyte (HWP) cells (Promocell, cat. No. C-12735) when treated with compound I-11 (FIG. 5), compound I-7 (FIG. 6), MK-8722 (FIG. 7), and PF-06409577 (FIG. 8). HWP cells (subcutaneous upper arm of obese patient) were starved for 3 hours in DMEM without FBS, treated with the components noted above in […] DMEM without FBS/glucose for 1 hour, and glucose uptake was detected using a glucose uptake kit (Promega). […] The bars show (from left to right) concentrations of 100 μM, 33 μM, 11 μM, 3.7 μM, 1.23 μM, 0.41 μM, 0.14 μM, 0.045 μM, 0.015 μM, 0.005 μM, 0 μM, and insulin.\nas §3, with “9-12” for “5-8”, “9),” for “5),”, “10),” for “6),”, “11),” for “7),”, “12).” for “8).”, “(abdomen cells)” for “(subcutaneous upper arm of obese patient)”\nas §1, §2"}, "[3]": {"tested_on": "AMPK signaling in human liver cells", "assay": "Western blot assay, human liver cells (Biological Example 1)", "type": "cell-based", "quoted_text": "After treatment, cells were analyzed using a glucose uptake assay and a western blot assay for human skeletal myoblasts, human cardiomyocytes cells, human hepatocytes-THLE-2 cells, preadipocyte HWP-c cells.\nSamples for immunoblotting studies were prepared for electrophoresis by adding in a final concentration of 1× Laemmli loading buffer (supplemented with 5% 2-mercaptoethanol). Samples were then electrophorized by SDS-PAGE (4-15% or 4-20% Criterion TGX Precast gel, Bio-Rad) at a constant voltage within the range of 140V. Proteins were transferred to a nitrocellulose membrane (Bio-Rad) using the Trans-Blot Turbo transfer system (Bio-Rad). Membranes were blocked with 5% BSA in TBST for a minimum of 1 hour at room temperature before incubating with the following primary antibodies: • Phospho-AMPKα (Thr172) (40H9) Rabbit mAb (CST, cat no: 2535S), • AMPKα Antibody (CST, cat no: 2532S) • Phospho-Raptor (Ser792) Antibody (CST, cat no: 2083S) • Raptor (24C12) Rabbit mAb (CST, cat no: 2280S) • Phospho-Acetyl-CoA Carboxylase (Ser79) Antibody (CST, cat no: 3661S) • Acetyl-CoA Carboxylase Antibody (CST, cat no: 3662S) • AMPKα2 Antibody (CST, cat no: 2757S) • AMPKβ1 antibody (CST, cat no: 12063) • AMPKβ2 Antibody (CST, CST, cat no: 4148S) • AMPKγ3 Antibody (CST, cat no: 2550S)."}, "[4]": {"assay": "Plasma, liver and adipose tissue concentration in db/db mice, day 36", "type": "in vivo, mice (Mus musculus; db/db C57BL/6)", "settings": "post 4 hours dosing on day 36; for concentration at 4 h: male, db/db C57BL/6, mouse, oral", "protocol": "A mixture of DMSO (2%), Cremophor EL (2%), Tween 80 (1%), 0.5% methyl cellulose (35%), and water (60%) was used for the formulation. Doses were prepared at concentrations of 30 and 50 mg/kg. Administration was oral, daily for 36 days. Male mice (Mus musculus; db/db C57BL/6) aged 8-9 weeks and weighing less than or equal to 40 grams were used for the study. Groups were assigned 10 mice per group.\nG2 and G3 plasma, liver and adipose tissue samples were collected post 4 hours dosing on day 36."}, "[5]": {"tested_on": "AMPK signal pathway in C2C12 cells", "assay": "Western blot assay, C2C12 cells", "quoted_text": "Samples for immunoblotting studies were prepared for electrophoresis by adding in a final concentration of 1× Laemmli loading buffer (supplemented with 5% 2-mercaptoethanol). Samples were then electrophorized by SDS-PAGE (4-15% or 4-20% Criterion TGX Precast gel, Bio-Rad) at a constant voltage within the range of 140V. Proteins were transferred to a nitrocellulose membrane (Bio-Rad) using the Trans-Blot Turbo transfer system (Bio-Rad). Membranes were blocked with 5% BSA in TBST for a minimum of 1 hour at room temperature before incubating with the following primary antibodies: • Phospho-AMPKα (Thr172) (40H9) Rabbit mAb (CST, cat no: 2535S), • AMPKα Antibody (CST, cat no: 2532S) • Phospho-Raptor (Ser792) Antibody (CST, cat no: 2083S) • Raptor (24C12) Rabbit mAb (CST, cat no: 2280S) • Phospho-Acetyl-CoA Carboxylase (Ser79) Antibody (CST, cat no: 3661S) • Acetyl-CoA Carboxylase Antibody (CST, cat no: 3662S) • AMPKα2 Antibody (CST, cat no: 2757S) • AMPKβ1 antibody (CST, cat no: 12063) • AMPKβ2 Antibody (CST, CST, cat no: 4148S) • AMPKγ3 Antibody (CST, cat no: 2550S). […]\nAfter differentiation of cells (e.g., HSKM, C2C12, L6) for 5 days, medium was changed to DHEM without FBS and glucose for starving cells for 2 hours. […] The resultant reaction mixture was then assayed and semi-quantitative histogram analysis of Western Blotting (signal value) was used to determine results."}, "[6]": {"tested_on": "human cardiomyocyte cells (HCM)", "assay": "Glucose uptake assay, human cardiomyocyte cells", "type": "cell-based", "settings": "for AMPK activation activity (glucose uptake assay): 10 doses 100 μM to 0.005 μM", "protocol": "FIGS. 17-19 show results for glucose update assays in human cardiomyocyte cells (“HCM”-healthy donor) (Promocell, cat. no. C-12810) when treated with compound I-11 (FIG. 17), compound I-7 (FIG. 18), and PF-06409577 (FIG. 19). After recovered HCM cells for 4 days, cells were starved for 3 hours in high glucose DMEM without FBS, treated with the components noted above in DMEM without FBS/glucose for 1 hour, and glucose uptake was detected using a glucose uptake kit (Promega). […] The bars show (from left to right) concentrations of 100 μM, 33 μM, 11 μM, 3.7 μM, 1.23 μM, 0.41 μM, 0.14 μM, 0.045 μM, 0.015 μM, 0.005 μM, 0 μM, and insulin.\nFIGS. 20-22 show results for glucose update assays in human cardiomyocyte cells (“HCM”-diabetic donor) (Promocell, cat. no. C-12810) when treated with compound I-11 (FIG. 20), compound I-7 (FIG. 21), and PF-06409577 (FIG. 22). After recovered HCM cells for 4 days, cells were starved for 3 hours in high glucose DMEM without FBS, treated with the components noted above in DMEM without FBS/glucose for 1 hour, and glucose uptake was detected using a glucose uptake kit (Promega). […] The bars show (from left to right) concentrations of 100 μM, 33 μM, 11 μM, 3.7 μM, 1.23 μM, 0.41 μM, 0.14 μM, 0.045 μM, 0.015 μM, 0.005 μM, 0 μM, and insulin.\nas §1, §2"}},
  "note": "“Also recorded” adds a separate entry of the source. Read-outs that look alike come from different tables or passages of the source.",
  "data": [
    {"smiles": "O=c1[nH]c(-c2c[nH]c3cc(F)c(-c4ccc(C5(O)CCC5)cc4)c(F)c23)no1", "note": "[Compound I-11, 3-(4,6-difluoro-5-(4-(1-hydroxycyclobutyl)phenyl)-1H-indol-3-yl)-1,2,4-oxadiazol-5(4H)-one]", "values": [
      {"measurement": "glucose uptake", "setting": "[1]", "value": "induced glucose uptake; also recorded: dosage-dependent manner"},
      {"measurement": "dose dependence of glucose uptake (printed: activates insulin)", "setting": "[2]; HWP cells, subcutaneous upper arm of obese patient, 100 μM to 0.005 μM, 1 hour", "value": "dose dependent manner"},
      {"measurement": "glucose uptake", "setting": "[2]; human adipocyte cells / HWP-c cells, donor site not stated", "value": "induced glucose uptake; also recorded: dosage-dependent manner"},
      {"measurement": "AMPK signaling activation", "setting": "[3]", "value": "dose-dependent manner"},
      {"measurement": "Liver (ng/mL), PK concentration, Average", "setting": "[4]; 30 mg/kg", "value": "BLQ"},
      {"measurement": "Liver (ng/mL), PK concentration, Average", "setting": "[4]; 50 mg/kg", "value": "BLQ"},
      {"measurement": "concentration at 4 h", "setting": "[4]; adipose tissue, 30 mg/kg, read-out: Adipose tissue (ng/mL), PK concentration, Average", "value": 19.5, "unit": "ng/mL"},
      {"measurement": "concentration at 4 h", "setting": "[4]; adipose tissue, 50 mg/kg, read-out: Adipose tissue (ng/mL), PK concentration, Average", "value": 11, "unit": "ng/mL"},
      {"measurement": "concentration at 4 h", "setting": "[4]; plasma, 30 mg/kg, read-out: Plasma (ng/mL), PK concentration, Average", "value": 244, "unit": "ng/mL"},
      {"measurement": "concentration at 4 h", "setting": "[4]; plasma, 50 mg/kg, read-out: Plasma (ng/mL), PK concentration, Average", "value": 197, "unit": "ng/mL"},
      {"measurement": "pAMPK/pACC/AMPKα2β1β2γ3 expression", "setting": "[5]", "value": "also induce"},
      {"measurement": "AMPK activation activity (glucose uptake assay)", "setting": "[6]; diabetic donor", "value": "did not show AMPK activation activity"},
      {"measurement": "glucose uptake", "setting": "[6]; donor not stated", "value": "did not induce glucose uptake in dose-dependent manner; also recorded: did not activate glucose uptake"},
      {"measurement": "AMPK activation activity (glucose uptake assay)", "setting": "[6]; healthy donor", "value": "did not show AMPK activation activity"}
    ]}
  ]
}
